Reference: PubChem BioAssay AID1963846 (Molecular Pharmacology Branch, DTP, NCI, 2024)

Tested on: 454973-116-R2-J3-PDC complex spheroid viability
Assay: Anticancer human tumor 454973-116-R2-J3-PDC patient-derived pancreatic carcinoma cell line growth inhibition [POLQ]
Conditions: for IC50: curve of first compound; for viability, T/C: stronger effect = lower value
In short: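 Three-cell-type spheroids modelling solid tumor plus stroma served as the readout system; POL inhibitors were tested individually and in combination, concentration ranges set by clinical Cmax where known.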

[1] = second compound 0.0316 µM, first compound 0.0316 µM
[2] = second compound 0.0316 µM, first compound 0.1 µM
[3] = second compound 0.0316 µM, first compound 0.316 µM
[4] = second compound 0.0316 µM, first compound 1 µM
[5] = second compound 0.1 µM, first compound 0.0316 µM
[6] = second compound 0.1 µM, first compound 0.1 µM
[7] = second compound 0.1 µM, first compound 0.316 µM
[8] = second compound 0.1 µM, first compound 1 µM
[9] = second compound 0.316 µM, first compound 0.0316 µM
[10] = second compound 0.316 µM, first compound 0.1 µM
[11] = second compound 0.316 µM, first compound 0.316 µM
[12] = second compound 0.316 µM, first compound 1 µM
[13] = second compound 1 µM, first compound 0.0316 µM
[14] = second compound 1 µM, first compound 0.1 µM
[15] = second compound 1 µM, first compound 0.316 µM
[16] = second compound 1 µM, first compound 1 µM
[17] = second compound 3.16 µM, first compound 0.0316 µM
[18] = second compound 3.16 µM, first compound 0.1 µM
[19] = second compound 3.16 µM, first compound 0.316 µM
[20] = second compound 3.16 µM, first compound 1 µM
[21] = second compound 10 µM, first compound 0.0316 µM
[22] = second compound 10 µM, first compound 0.1 µM
[23] = second compound 10 µM, first compound 0.316 µM
[24] = second compound 10 µM, first compound 1 µM
[25] = second compound 0.0316 µM, first compound 3.16 µM
[26] = second compound 0.0316 µM, first compound 10 µM
[27] = second compound 0.1 µM, first compound 3.16 µM
[28] = second compound 0.1 µM, first compound 10 µM
[29] = second compound 0.316 µM, first compound 3.16 µM
[30] = second compound 0.316 µM, first compound 10 µM
[31] = second compound 1 µM, first compound 3.16 µM
[32] = second compound 1 µM, first compound 10 µM
[33] = second compound 3.16 µM, first compound 3.16 µM
[34] = second compound 3.16 µM, first compound 10 µM
[35] = second compound 10 µM, first compound 3.16 µM
[36] = second compound 10 µM, first compound 10 µM
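Further: spheroids exposed to drugs for seven days before measurement.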
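Wherever viability, T/C is given: percent viability relative to DMSO vehicle control wells taken as 100%.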

Work on `COc1cccc(OCCCN)c1-c1cc(Nc2cnc(C#N)cn2)n[nH]1` + COC1C(OC(N)=O)C(O)C(Oc2ccc3c(O)c(NC(=O)c4ccc(O)c(CC=C(C)C)c4)c(=O)oc3c2C)OC1(C)C yielded an IC50 (second compound 0.0316 µM) of 16.9 nM, an IC50 (second compound 0.1 µM) of 16.5 nM and an IC50 (second compound 0.316 µM) of 15.2 nM. For the same compound, the IC50 (second compound 1 µM) was 15.5 nM, the IC50 (second compound 3.16 µM) was 15.8 nM and the IC50 (second compound 10 µM) was 15.1 nM. It also gave a viability, T/C (second compound 0.0316 µM, first compound 0.00316 µM) of 103%, a viability, T/C (second compound 0.0316 µM, first compound 0.01 µM) of 78% and a viability, T/C [1] of 16.5%. The viability, T/C [2] was 5.78%, the viability, T/C [3] was 6.6% and the viability, T/C [4] was 5.48%. It also gave a viability, T/C (second compound 0.1 µM, first compound 0.00316 µM) of 103%, a viability, T/C (second compound 0.1 µM, first compound 0.01 µM) of 78.8% and a viability, T/C [5] of 12.9%. It also gave a viability, T/C [6] of 5.6%, a viability, T/C [7] of 5.16% and a viability, T/C [8] of 6.37%. The viability, T/C (second compound 0.316 µM, first compound 0.00316 µM) was 95.6%, the viability, T/C (second compound 0.316 µM, first compound 0.01 µM) was 70.8% and the viability, T/C [9] was 13.3%. The viability, T/C [10] was 5.72%, the viability, T/C [11] was 3.83% and the viability, T/C [12] was 4.13%. The viability, T/C (second compound 1 µM, first compound 0.00316 µM) was 97%, the viability, T/C (second compound 1 µM, first compound 0.01 µM) was 73.2% and the viability, T/C [13] was 12.2%. The viability, T/C [14] was 6.82%, the viability, T/C [15] was 5.97% and the viability, T/C [16] was 5.82%. For the same compound, the viability, T/C (second compound 3.16 µM, first compound 0.00316 µM) was 107%, the viability, T/C (second compound 3.16 µM, first compound 0.01 µM) was 75.5% and the viability, T/C [17] was 11%. For the same compound, the viability, T/C [18] was 7.17%, the viability, T/C [19] was 6.78% and the viability, T/C [20] was 5.38%. It also gave a viability, T/C (second compound 10 µM, first compound 0.00316 µM) of 104%, a viability, T/C (second compound 10 µM, first compound 0.01 µM) of 68% and a viability, T/C [21] of 17.8%. The viability, T/C [22] was 6.01%, the viability, T/C [23] was 7.28% and the viability, T/C [24] was 7.27%.
`Nc1ccn(C2OC(CO)C(O)C2(F)F)c(=O)n1` (stereo unspecified) + COC1C(OC(N)=O)C(O)C(Oc2ccc3c(O)c(NC(=O)c4ccc(O)c(CC=C(C)C)c4)c(=O)oc3c2C)OC1(C)C showed an IC50 (second compound 0.0316 µM) of under 31.6 nM, an IC50 (second compound 0.1 µM) of under 31.6 nM and an IC50 (second compound 0.316 µM) of under 31.6 nM. It also gave an IC50 (second compound 1 µM) of under 31.6 nM, an IC50 (second compound 3.16 µM) of under 31.6 nM and an IC50 (second compound 10 µM) of under 31.6 nM. It also gave a viability, T/C [1] of 14.4%, a viability, T/C [2] of 8.27% and a viability, T/C [3] of 11.6%. For the same compound, the viability, T/C [4] was 11.3%, the viability, T/C [25] was 11.7% and the viability, T/C [26] was 12.9%. The viability, T/C [5] was 12.6%, the viability, T/C [6] was 11.2% and the viability, T/C [7] was 10.2%. It also gave a viability, T/C [8] of 11.4%, a viability, T/C [27] of 11.2% and a viability, T/C [28] of 10.5%. The viability, T/C [9] was 10.3%, the viability, T/C [10] was 9.75% and the viability, T/C [11] was 10.9%. It also gave a viability, T/C [12] of 11%, a viability, T/C [29] of 15.1% and a viability, T/C [30] of 10.2%. It also gave a viability, T/C [13] of 12%, a viability, T/C [14] of 11.9% and a viability, T/C [15] of 13.1%. The viability, T/C [16] was 13.4%, the viability, T/C [31] was 11.2% and the viability, T/C [32] was 14.5%. For the same compound, the viability, T/C [17] was 12.2%, the viability, T/C [18] was 15.2% and the viability, T/C [19] was 11.4%. For the same compound, the viability, T/C [20] was 10.9%, the viability, T/C [33] was 11% and the viability, T/C [34] was 11.1%. The viability, T/C [21] was 13.2%, the viability, T/C [22] was 10.8% and the viability, T/C [23] was 12.5%. The viability, T/C [24] was 12.4%, the viability, T/C [35] was 11.9% and the viability, T/C [36] was 12%.
In the case of `O=c1[nH]cc(F)c(=O)[nH]1` + COC1C(OC(N)=O)C(O)C(Oc2ccc3c(O)c(NC(=O)c4ccc(O)c(CC=C(C)C)c4)c(=O)oc3c2C)OC1(C)C, the IC50 (second compound 0.0316 µM) is reported as 4110 nM, the IC50 (second compound 0.1 µM) is reported as 4800 nM and the IC50 (second compound 0.316 µM) is reported as 4270 nM. The IC50 (second compound 1 µM) was 4010 nM, the IC50 (second compound 3.16 µM) was 5630 nM and the IC50 (second compound 10 µM) was 3270 nM. For the same compound, the viability, T/C [1] was 104%, the viability, T/C [2] was 104% and the viability, T/C [3] was 110%. For the same compound, the viability, T/C [4] was 100%, the viability, T/C [25] was 55.6% and the viability, T/C [26] was 31.2%. For the same compound, the viability, T/C [5] was 105%, the viability, T/C [6] was 108% and the viability, T/C [7] was 106%. The viability, T/C [8] was 98%, the viability, T/C [27] was 60.6% and the viability, T/C [28] was 31.4%. The viability, T/C [9] was 112%, the viability, T/C [10] was 108% and the viability, T/C [11] was 108%. The viability, T/C [12] was 96.9%, the viability, T/C [29] was 55.2% and the viability, T/C [30] was 34.9%. It also gave a viability, T/C [13] of 112%, a viability, T/C [14] of 111% and a viability, T/C [15] of 110%. It also gave a viability, T/C [16] of 96.4%, a viability, T/C [31] of 53.9% and a viability, T/C [32] of 35.1%. It also gave a viability, T/C [17] of 112%, a viability, T/C [18] of 118% and a viability, T/C [19] of 113%. The viability, T/C [20] was 97.6%, the viability, T/C [33] was 63.4% and the viability, T/C [34] was 36.9%. The viability, T/C [21] was 111%, the viability, T/C [22] was 108% and the viability, T/C [23] was 109%. It also gave a viability, T/C [24] of 100%, a viability, T/C [35] of 50.6% and a viability, T/C [36] of 31.3%.
